Here are results for 7 compounds from PMC12208134, “Structure-activity relationships of 1,5-dihydro-2H-benzo[b][1,4]diazepine-2,4(3H)-diones as inhibitors of Trypanosoma cruzi” (RSC medicinal chemistry, 2025).

Series [1] deals with intracellular T. cruzi amastigotes. Kind of series: T. cruzi intracellular potency assay (high content imaging). The note with it: for Emax / EC50 / IC50: Trypanosoma cruzi; for Emax / EC50 / Hill slope (T. cruzi) / Max Effect (T. cruzi) / pEC50 (T. cruzi): individual replicate; for Emax: read-out: Max Effect (T. cruzi); for EC50: read-out: pEC50 (T. cruzi) (converted); for IC50: intracellular amastigotes in Vero cells, 96 h, mean of N ≥ 3, read-out: T. cruzi pIC50 (converted). Set-up: key to Max Effect (T. cruzi): % inhibition; 0% = DMSO control, 100% = 16 μM nifurtimox control. It counts as cell-based, Trypanosoma cruzi. On the procedure:
(§1) T. cruzi intracellular potency and rate-of-kill assay (high content imaging) ^1
(§2) Silvio X10/7 T. cruzi trypomastigotes were incubated at 37°C 5% CO2 with 1.6×10^7 Vero cells overnight at MOI10 in MEM media supplemented with 10% foetal calf serum (FCS). Extracellular parasites were removed by aspirating cell culture supernatant, and washing Vero monolayer with 10 ml serum-free MEM three times. Vero cells were then harvested by trypsinization and dispensed at 2×10^3 per well (50 μl in MEM/ 1% FCS) into 384 well plates pre-stamped with compounds in DMSO using automated washer/ dispenser EL406 and liquid handling software (Biotek). Plates were then incubated at 37°C in 5% CO2 for 96 h. For rate-of-kill determination, plates were incubated for 24h, 48h, 72h and 96h.
(§3) Plates were subsequently fixed with 4% formaldehyde for 20 min, permeabilised and stained with 5 μgml^-1 Hoechst 33342/ 0.1% Triton/ PBS Thimerosal 20 min. Automated imaging was performed by an Operetta high content imaging system using 20x objective (PerkinElmer). Images were analysed with an algorithm generated in Columbus (PerkinElmer) to segment Vero cell nuclei, Vero cell cytoplasm and parasite nuclei/ kinetoplasts, reporting number of amastigotes per Vero cell, percent infected Vero cells and total number of Vero cells. Compound potencies against T. cruzi parasites were calculated in IDBS Activitybase using percent infected Vero cells and Vero toxicity curves generated using number of host cells. All data was normalised to percent inhibition based on the raw data values for the 100% effect control (16 μM nifurtimox) and the 0% effect control (DMSO) on each plate at each time point. Curve fitting was carried out using a four-parameter equation as previously described. ^2 For rate-of-kill experiments the percent infected cells at each compound concentration was plotted against time.

A further series deals with host Vero cell. Kind of series: Vero host cell toxicity in the intracellular T. cruzi assay. It counts as cell-based. Set-up: key to Max Effect (Vero): % inhibition; 0% = DMSO control, 100% = 16 μM nifurtimox control. To be noted: for IC50: host Vero cell, read-out: Vero pIC50 (converted). On the procedure:
as §1, §2, §3

Another series concerns the target Tc-CYP51 (Trypanosoma cruzi, UniProt Q7Z1V1). Kind of series: T. cruzi sterol 14α-demethylase (CYP51) enzyme assay. It counts as biochemical. The note with it: for Tc CYP51 Hill / Emax / IC50: individual replicate; for Emax: read-out: Tc CYP51 Max Effect; for IC50: read-out: Tc CYP51 pIC50 (converted); for fold more potent against the parasites than against Tc-CYP51: urea series. The procedure: T. cruzi sterol 14α-demethylase (CYP51) enzyme assay
Potency against T. cruzi CYP51 was determined using a previously described fluorescence assay. Average potency for compound 1 was determined with three experimental replicates. Potencies in Fig.3 are from single experimental replicates. ^5

The nature of series [2]: Kinetic aqueous solubility by CAD. To be noted: kinetic from dmso stock; kinetic, CAD; read-out: Aqueous solubility. It counts as physicochemical.
The nature of series [3]: Mouse liver microsomal intrinsic clearance. The note with it: mouse liver microsomes. It counts as in vitro ADME. A general note: Microsomes from liver hold many membrane-bound enzymes, among them those of drug oxidation.
A short description of series [4]: Human liver microsomal intrinsic clearance. It counts as in vitro ADME. To be noted: human liver microsomes.
Series [5] in a line: ChromLogD pH7.4 (chromatographic hydrophobicity index), PFI, LLE. The note with it: for PFI: ChromLogDpH7.4 + no. aromatic rings; for chromatographic logD: pH 7.4. An excerpt: [23] Alongside PFI, LLE (ligand lipophilic efficiency, T. cruzi pIC50 - ChromLogDpH7.4) was also monitored to identify changes where the impact on potency was not driven by increasing lipophilicity.

[6] abbreviates: Chlorocebus sabaeus, Vero, individual replicate.

≈ marks a conversion by molar mass, not a printed value. Where “and” joins values, the source holds several entries; their conditions need not be identical. Equal values may be shown once.

Tc-CYP51, sequence (Q7Z1V1 whole entry): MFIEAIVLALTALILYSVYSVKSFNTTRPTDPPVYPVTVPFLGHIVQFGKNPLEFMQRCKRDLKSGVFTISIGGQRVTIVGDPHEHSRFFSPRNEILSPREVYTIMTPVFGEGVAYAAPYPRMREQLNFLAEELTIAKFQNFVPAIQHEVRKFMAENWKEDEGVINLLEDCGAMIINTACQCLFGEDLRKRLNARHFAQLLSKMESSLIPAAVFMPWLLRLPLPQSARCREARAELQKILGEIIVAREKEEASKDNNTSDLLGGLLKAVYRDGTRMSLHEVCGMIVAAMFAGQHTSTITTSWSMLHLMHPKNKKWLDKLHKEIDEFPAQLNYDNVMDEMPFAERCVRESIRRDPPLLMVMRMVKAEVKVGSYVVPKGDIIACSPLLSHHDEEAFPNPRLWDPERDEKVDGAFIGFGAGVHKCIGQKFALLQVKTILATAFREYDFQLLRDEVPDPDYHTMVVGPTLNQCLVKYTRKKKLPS

With `COc1cccc(N2C(=O)C(NC(=O)Nc3ccc(C)cc3)C(=O)Nc3ccccc32)c1` (stereo not drawn) [Compound 5, 1-(1-(3-methoxyphenyl)-2,4-dioxo-2,3,4,5-tetrahydro-1H-benzo[b][1,4]diazepin-3-yl)-3-(p-tolyl)urea], in series [1], the Emax came to 87%; the EC50 was 2510 nM; the IC50 is 2510 nM; the “Hill slope (T. cruzi)” value was 2.8 and 3.2. In addition, in series [1], the “Max Effect (T. cruzi)” value was 88 and 91; the “pEC50 (T. cruzi)” value was 5.7 and 5.5. The EC50 in the series on host Vero cell (setting [6]) was more than 50100 nM. Moreover, in the series on host Vero cell (Chlorocebus sabaeus), the IC50 is more than 50100 nM. Moreover, the “Max Effect (Vero)” value in the series with host Vero cell (individual replicate) is 47 and 14 and 18 and 12. For the same compound, on Tc-CYP51, the “Tc CYP51 Hill” value is reported as 0.7, the Emax was 68%, the IC50 was 3980 nM and the “fold more potent against the parasites than against Tc-CYP51” value stood at 10 fold. The solubility in series [2] was determined as 37 µM (≈ 15.9 µg/mL). The “MLM CLi” value in series [3] came to 1.6 mL/min/g. Moreover, the “HLM CLi” value in series [4] is less than 0.4 mL/min/g. Moreover, in series [5], the PFI is given as 7.8 and the chromatographic logD was determined as 4.8.
In the case of `COc1ccc(NC(=O)NC2C(=O)Nc3cccc(F)c3N(c3ccccc3)C2=O)cc1` (stereo not drawn) [Compound 9, 1-(9-fluoro-2,4-dioxo-1-phenyl-2,3,4,5-tetrahydro-1H-benzo[b][1,4]diazepin-3-yl)-3-(4-methoxyphenyl)urea], in series [1], the Emax worked out at 91%; the EC50 was 501 nM; the IC50 was 398 nM; the “Hill slope (T. cruzi)” value is 5.2 and 12.9 and 2.3 and 2.7. For the same compound, in series [1], the “Max Effect (T. cruzi)” value is 89 and 94; the “pEC50 (T. cruzi)” value was 6.5 and 6.4. This compound also showed an EC50 in the series on host Vero cell (setting [6]) of more than 50100 nM. The IC50 with host Vero cell (Chlorocebus sabaeus) is more than 50100 nM. Moreover, the “Max Effect (Vero)” value with host Vero cell (individual replicate) was 6 and 11 and -2.3 and 8. In addition, at Tc-CYP51, the “Tc CYP51 Hill” value stood at 1.3, the Emax was determined as 90%, the IC50 is 10000 nM and the “fold more potent against the parasites than against Tc-CYP51” value amounted to 10 fold. The solubility in series [2] was less than 1 µM. Besides, the “MLM CLi” value in series [3] is less than 0.5 mL/min/g. Also, the “HLM CLi” value in series [4] is less than 0.4 mL/min/g. For the same compound, in series [5], the PFI worked out at 7.2 and the chromatographic logD worked out at 4.2.
Turning to `COc1ccc(CN2C(=O)C(N)C(=O)N(c3ccccc3)c3ccccc32)cc1` (stereo not drawn) [Compound 15, 3-amino-1-(4-methoxybenzyl)-5-phenyl-1,5-dihydro-2H-benzo[b][1,4]diazepine-2,4(3H)-dione], in series [1], the Emax is 87%; the EC50 was 1580 nM; the IC50 is 1580 nM; the “Hill slope (T. cruzi)” value is 1.8 and 4.1 and 3.2 and 10.2. In addition, in series [1], the “Max Effect (T. cruzi)” value is 92 and 88; the “pEC50 (T. cruzi)” value is 5.7 and 5.9. In the series with host Vero cell (setting [6]), the EC50 was more than 50100 nM. Moreover, the IC50 in the series with host Vero cell (Chlorocebus sabaeus) was more than 50100 nM. Moreover, the “Max Effect (Vero)” value in the series with host Vero cell (individual replicate) is 9 and 4.52 and 11 and 20. At Tc-CYP51, the “Tc CYP51 Hill” value amounted to 1.2, the Emax is 94% and the IC50 was 200 nM. The solubility in series [2] was more than 232 µM. The “MLM CLi” value in series [3] amounted to 16 mL/min/g. In addition, the “HLM CLi” value in series [4] was determined as 1.3 mL/min/g. In addition, in series [5], the PFI was found to be 7.1 and the chromatographic logD was 4.1.
As for `COc1ccc(CN2C(=O)C(N)C(=O)N(c3ccc(F)cc3)c3ccccc32)cc1` (stereo not drawn) [Compound 17, 3-amino-1-(4-fluorophenyl)-5-(4-methoxybenzyl)-1,5-dihydro-2H-benzo[b][1,4]diazepine-2,4(3H)-dione], in series [1], the Emax stood at 88%; the EC50 is 501 nM; the IC50 is 631 nM; the “Hill slope (T. cruzi)” value is 24.4 and 25.4 and 12.5 and 3.5. Besides, in series [1], the “Max Effect (T. cruzi)” value was 87 and 83; the “pEC50 (T. cruzi)” value is 6.2 and 6.0. Moreover, in the series with host Vero cell (setting [6]), the EC50 is more than 50100 nM. For the same compound, the IC50 with host Vero cell (Chlorocebus sabaeus) was more than 50100 nM. Besides, in the series with host Vero cell (individual replicate), the “Max Effect (Vero)” value was 26 and 8 and 14 and 23. At Tc-CYP51, the “Tc CYP51 Hill” value was 1.8, the Emax came to 95% and the IC50 is 200 nM. Further, the solubility in series [2] is more than 410 µM. Also, the “MLM CLi” value in series [3] was 10.6 mL/min/g. Also, the “HLM CLi” value in series [4] was less than 0.4 mL/min/g. For the same compound, in series [5], the PFI is 7.4 and the chromatographic logD was found to be 4.4.
In the case of `COc1ccc(CN2C(=O)C(N)C(=O)N(c3ccc(OC)nc3)c3ccccc32)cc1` (stereo not drawn) [Compound 18, 3-amino-1-(4-methoxybenzyl)-5-(6-methoxypyridin-3-yl)-1,5-dihydro-2H-benzo[b][1,4]diazepine-2,4(3H)-dione], in series [1], the Emax stood at 75%; the EC50 is 501 nM; the IC50 is 501 nM; the “Hill slope (T. cruzi)” value was 11.9 and 18.7 and 19.1 and 12.3. The “Max Effect (T. cruzi)” value in series [1] is 86 and 77 and 83. The EC50 in the series with host Vero cell (setting [6]) was more than 50100 nM. Besides, the IC50 in the series on host Vero cell (Chlorocebus sabaeus) is more than 50100 nM. In the series on host Vero cell (individual replicate), the “Hill Slope (Vero)” value amounted to 3.7; the “Max Effect (Vero)” value was 39 and 19 and 56 and 14; the “pEC50 (Vero)” value turned out to be 4.4. On Tc-CYP51, the “Tc CYP51 Hill” value is reported as 1.3, the Emax was 100% and the IC50 is 200 nM. In addition, the solubility in series [2] is more than 332 µM. Moreover, the “MLM CLi” value in series [3] is 5.8 mL/min/g. Further, the “HLM CLi” value in series [4] is less than 0.4 mL/min/g. In series [5], the PFI is reported as 6.8 and the chromatographic logD is 3.8.
Take `COc1ccc(CN2C(=O)C(N)C(=O)N(C3CC3)c3ccccc32)cc1` (stereo not drawn) [Compound 19, 3-amino-1-cyclopropyl-5-(4-methoxybenzyl)-1,5-dihydro-2H-benzo[b][1,4]diazepine-2,4(3H)-dione]: in series [1], the Emax turned out to be 88%; the EC50 was 5010 nM; the IC50 was 3980 nM; the “Hill slope (T. cruzi)” value is 14.2 and 4.9 and 13.0 and 5.9. Also, in series [1], the “Max Effect (T. cruzi)” value is recorded as 87; the “pEC50 (T. cruzi)” value was 5.5 and 5.4. The EC50 in the series on host Vero cell (setting [6]) was more than 50100 nM. Besides, the Emax in the series on host Vero cell (Chlorocebus sabaeus, Vero, individual replicate, read-out: Max Effect (Vero)) is 18%. Besides, the IC50 in the series with host Vero cell (Chlorocebus sabaeus) was more than 50100 nM. The “Max Effect (Vero)” value in the series on host Vero cell (individual replicate) was 15 and 17 and 14. Also, on Tc-CYP51, the “Tc CYP51 Hill” value came to 1.0, the Emax is 94% and the IC50 is 316 nM. Further, the solubility in series [2] was more than 442 µM. Moreover, in series [3], the “MLM CLi” value is 11.8 mL/min/g. For the same compound, in series [4], the “HLM CLi” value was less than 0.4 mL/min/g. Moreover, in series [5], the PFI was determined as 5.2 and the chromatographic logD was 3.2.
With `COc1ccc(CN2C(=O)C(N)C(=O)N(CC3CC(F)(F)C3)c3ccccc32)cc1` (stereo not drawn) [Compound 20, 3-amino-1-((3,3-difluorocyclobutyl)methyl)-5-(4-methoxybenzyl)-1,5-dihydro-2H-benzo[b][1,4]diazepine-2,4(3H)-dione], in series [1], the Emax was determined as 84%; the EC50 was 1260 nM; the IC50 is 1260 nM; the “Hill slope (T. cruzi)” value is 2.8 and 3.6 and 20.7. Also, in series [1], the “Max Effect (T. cruzi)” value was 90 and 80 and 87; the “pEC50 (T. cruzi)” value is 6.1 and 6.0 and 5.8. The EC50 with host Vero cell (setting [6]) was more than 50100 nM. The IC50 with host Vero cell (Chlorocebus sabaeus) is more than 50100 nM. In the series with host Vero cell (individual replicate), the “Max Effect (Vero)” value is 30 and 22 and 25 and 9. For the same compound, on Tc-CYP51, the “Tc CYP51 Hill” value is on record as 1.3, the Emax was 99% and the IC50 was 100 nM. In addition, the solubility in series [2] is more than 402 µM. Besides, in series [3], the “MLM CLi” value was found to be 12 mL/min/g. Moreover, in series [4], the “HLM CLi” value was determined as 0.5 mL/min/g. For the same compound, in series [5], the PFI is recorded as 6.2 and the chromatographic logD is 4.2.

For orientation: solubility means how much of the substance goes into solution per volume. In general, chromatographic logD refers to lipophilicity estimated from chromatographic retention.
